Measurements as given in PubChem BioAssay (NCI).
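Exposure lasted 48 hours, with cells grown in 96-well plates and compounds tested at five concentrations. TGI denotes the concentration required for complete inhibition of growth.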

Experiments:
Assay in all cases: growth of human tumour cells (NCI), 48 h
786-0 renal = test system: 786-0 renal
A498 renal = test system: A498 renal
A549 NSCLC = test system: A549 NSCLC
ACHN renal = test system: ACHN renal
CAKI-1 renal = test system: CAKI-1 renal
CCRF-CEM leukemia = test system: CCRF-CEM leukemia
COLO 205 colon = test system: COLO 205 colon
DLD-1 colon = test system: DLD-1 colon
DMS 114 small cell lung = test system: DMS 114 small cell lung
DMS 273 small cell lung = test system: DMS 273 small cell lung
EKVX NSCLC = test system: EKVX NSCLC
HCC-2998 colon = test system: HCC-2998 colon
HCT-116 colon = test system: HCT-116 colon
HCT-15 colon = test system: HCT-15 colon
HL-60(TB) leukemia = test system: HL-60(TB) leukemia
HOP-18 NSCLC = test system: HOP-18 NSCLC
HOP-62 NSCLC = test system: HOP-62 NSCLC
HOP-92 NSCLC = test system: HOP-92 NSCLC
HT29 colon = test system: HT29 colon
IGROV1 ovarian = test system: IGROV1 ovarian
K-562 leukemia = test system: K-562 leukemia
KM12 colon = test system: KM12 colon
KM20L2 colon = test system: KM20L2 colon
LOX IMVI melanoma = test system: LOX IMVI melanoma
LXFL 529 NSCLC = test system: LXFL 529 NSCLC
M14 melanoma = test system: M14 melanoma
M19-MEL melanoma = test system: M19-MEL melanoma
MALME-3M melanoma = test system: MALME-3M melanoma
MOLT-4 leukemia = test system: MOLT-4 leukemia
NCI-H226 lung = test system: NCI-H226 lung
NCI-H23 lung = test system: NCI-H23 lung
NCI-H460 lung = test system: NCI-H460 lung
NCI-H522 lung = test system: NCI-H522 lung
OVCAR-3 ovarian = test system: OVCAR-3 ovarian
OVCAR-4 ovarian = test system: OVCAR-4 ovarian
OVCAR-5 ovarian = test system: OVCAR-5 ovarian
OVCAR-8 ovarian = test system: OVCAR-8 ovarian
RPMI-8226 leukemia = test system: RPMI-8226 leukemia
RXF 393 renal = test system: RXF 393 renal
SF-268 CNS = test system: SF-268 CNS
SF-295 CNS = test system: SF-295 CNS
SF-539 CNS = test system: SF-539 CNS
SK-MEL-2 melanoma = test system: SK-MEL-2 melanoma
SK-MEL-28 melanoma = test system: SK-MEL-28 melanoma
SK-MEL-5 melanoma = test system: SK-MEL-5 melanoma
SK-OV-3 ovarian = test system: SK-OV-3 ovarian
SN12C renal = test system: SN12C renal
SNB-19 CNS = test system: SNB-19 CNS
SNB-75 CNS = test system: SNB-75 CNS
SNB-78 CNS = test system: SNB-78 CNS
SW-620 colon = test system: SW-620 colon
TK-10 renal = test system: TK-10 renal
U251 CNS = test system: U251 CNS
UACC-257 melanoma = test system: UACC-257 melanoma
UACC-62 melanoma = test system: UACC-62 melanoma
UO-31 renal = test system: UO-31 renal
XF 498 CNS = test system: XF 498 CNS
SR leukemia = test system: SR leukemia

Measured: TGI

O=C(O)C[C@@H](Cl)[C@H](NC(=O)OCc1ccccc1)C(=O)O
not listed: SR leukemia
> 100 µM: all other assays above

C=CCN1/C(=C(\C#N)c2nc3ccccc3[nH]2)Sc2c1nc[nH]c2=O
not listed: 786-0 renal | HOP-18 NSCLC | LOX IMVI melanoma | NCI-H226 lung
> 100 µM: all other assays above
